This is an account of results in patent US12338220B2, “Antiviral pyrazolopiridinone compounds” (Novartis AG, priority 2019, dated 2025).

In one test the target is HSV-polymerase (Human herpesvirus 1 (strain 17) (HHV-1) (Human herpes simplex virus 1), UniProt P04293). In words: biochemical.
For a further test, the target named is CMV-polymerase (Human cytomegalovirus (strain AD169) (HHV-5) (Human herpesvirus 5), UniProt P08546). The test is described as follows: biochemical.
The test system of the next test is CMV. The test is described as follows: microbe, parasite or virus in culture. Particulars: Human betaherpesvirus 5, 72 h, read-out: CMV-Luc Cellular EC50, NN-NHDF cells, MOI 1, 72 hrs. The test is classed as cell-based.
Where [1] appears, read: read-out: CMV-polymerase Biochemical IC50.
Setting [2] is: CMV-polymerase Biochemical IC50.

Read-outs that look alike come from different tables or passages of the source.

Compound `Cn1nc(C(=O)NCc2ccc(C#N)cc2)c2c1C(=O)N(CC1(S(=O)(=O)C3(C(O)CO)CC3)CC1)CC2` (single isomer, unassigned) [Example 195, (R)- or (S)-N-(4-Cyanobenzyl)-6-((1-((1-(1,2-dihydroxyethyl)cyclopropyl)sulfonyl)cyclopropyl)methyl)-1-methyl-7-oxo-4,5,6,7-tetrahydro-1H-pyrazolo[3,4-c]pyridine-3-carboxamide] had an IC50 against HSV-polymerase of 23 nM.

On to `Cn1nc(C(=O)NCc2ccc(C#N)cc2)c2c1C(=O)N(CC1(S(=O)(=O)C(C)(C)COC(F)CN)CC1)CC2` (single isomer, unassigned) [Example 82, (R)- or (S)-6-((1-((1-(2-amino-1-fluoroethoxy)-2-methylpropan-2-yl)sulfonyl)cyclopropyl)methyl)-N-(4-cyanobenzyl)-1-methyl-7-oxo-4,5,6,7-tetrahydro-1H-pyrazolo[3,4-c]pyridine-3-carboxamide], for which the IC50 on CMV-polymerase (setting [1]) was 2 nM; on HSV-polymerase it was 82 nM.

In the case of `Cn1nc(C(=O)NCc2ccc(C#N)cc2)c2c1C(=O)N(CC1(S(=O)(=O)C(C)(C)C(O)C(C)(C)N)CC1)CC2` (single isomer, unassigned) [Example 211, (R)- or (S)-6-((1-((4-Amino-3-hydroxy-2,4-dimethylpentan-2-yl)sulfonyl)cyclopropyl)methyl)-N-(4-cyanobenzyl)-1-methyl-7-oxo-4,5,6,7-tetrahydro-1H-pyrazolo[3,4-c]pyridine-3-carboxamide], the IC50 at CMV-polymerase (setting [2]) came to 9 nM; on HSV-polymerase, 77 nM. The corresponding values for `CC1Cc2c(C(=O)NCc3ccc(C#N)cc3)nn(C)c2C(=O)N1CC1(S(C)(=O)=O)CC1` (single isomer, unassigned) [Example 42, (R)- or (S)-N-(4-cyanobenzyl)-1,5-dimethyl-6-((1-(methylsulfonyl)cyclopropyl)methyl)-7-oxo-4,5,6,7-tetrahydro-1H-pyrazolo[3,4-c]pyridine-3-carboxamide] are 149 nM and 2000 nM. On to `CC1=NOC(C(C)(C)S(=O)(=O)C2(CN3CCc4c(C(=O)NCc5ccc(C#N)cc5)nn(C)c4C3=O)CC2)C1` (single isomer, unassigned) [Example 112, (R)- or (S)-N-(4-Cyanobenzyl)-1-methyl-6-((1-((2-(3-methyl-4,5-dihydroisoxazol-5-yl)propan-2-yl)sulfonyl)cyclopropyl)methyl)-7-oxo-4,5,6,7-tetrahydro-1H-pyrazolo[3,4-c]pyridine-3-carboxamide], for which the IC50 on CMV-polymerase (setting [1]) turned out to be 2 nM; against HSV-polymerase it was 89 nM.

For the compound `COCC(C)(CO)S(=O)(=O)C1(CN2CCc3c(C(=O)NCc4ccc(C#N)cc4)nn(C)c3C2=O)CC1` (single isomer, unassigned) [Example 182, (R)- or (S)-N-(4-Cyanobenzyl)-6-((1-((1-hydroxy-3-methoxy-2-methylpropan-2-yl)sulfonyl)cyclopropyl)methyl)-1-methyl-7-oxo-4,5,6,7-tetrahydro-1H-pyrazolo[3,4-c]pyridine-3-carboxamide], the IC50 against CMV-polymerase (setting [2]) worked out at 2 nM; against HSV-polymerase it was 46 nM. `CC1=NOC(C(C)(C)S(=O)(=O)C2(CN3CCc4c(C(=O)NCc5ccc(C#N)cc5)nn(C)c4C3=O)CC2)C1` (single isomer, unassigned) [Example 111, (R)- or (S)-N-(4-Cyanobenzyl)-1-methyl-6-((1-((2-(3-methyl-4,5-dihydroisoxazol-5-yl)propan-2-yl)sulfonyl)cyclopropyl)methyl)-7-oxo-4,5,6,7-tetrahydro-1H-pyrazolo[3,4-c]pyridine-3-carboxamide]: the half-maximal inhibitory concentration (IC50) at CMV-polymerase (setting [1]) amounted to 5 nM; against HSV-polymerase, 148 nM. With `Cn1nc(C(=O)NCc2ccc(C#N)cc2)c2c1C(=O)N(CC1(S(=O)(=O)C(C)(C)COC(F)CO)CC1)CC2` (single isomer, unassigned) [Example 81, (R)- or (S)-N-(4-cyanobenzyl)-6-((1-((1-(1-fluoro-2-hydroxyethoxy)-2-methylpropan-2-yl)sulfonyl)cyclopropyl)methyl)-1-methyl-7-oxo-4,5,6,7-tetrahydro-1H-pyrazolo[3,4-c]pyridine-3-carboxamide], the IC50 against CMV-polymerase (setting [2]) came out at 3 nM; against HSV-polymerase it was 46 nM. In the case of `Cn1nc(C(=O)NCc2ccc(C#N)cc2)c2c1C(=O)N(CC1(S(=O)(=O)C(C)(C)COC(F)CN)CC1)CC2` (single isomer, unassigned) [Example 83, (R)- or (S)-6-((1-((1-(2-Amino-1-fluoroethoxy)-2-methylpropan-2-yl)sulfonyl)cyclopropyl)methyl)-N-(4-cyanobenzyl)-1-methyl-7-oxo-4,5,6,7-tetrahydro-1H-pyrazolo[3,4-c]pyridine-3-carboxamide], the IC50 at CMV-polymerase (setting [1]) came out at 1 nM; at HSV-polymerase, 71 nM.

For `CC(O)CC(C)(C)S(=O)(=O)C1(CN2CCc3c(C(=O)NCc4ccc(C#N)cc4)nn(C)c3C2=O)CC1` (single isomer, unassigned) [Example 116, (R)- or (S)-N-(4-Cyanobenzyl)-6-((1-((4-hydroxy-2-methylpentan-2-yl)sulfonyl)cyclopropyl)methyl)-1-methyl-7-oxo-4,5,6,7-tetrahydro-1H-pyrazolo[3,4-c]pyridine-3-carboxamide], the values for the IC50 on CMV-polymerase (setting [2]) and on HSV-polymerase were 2 nM and 48 nM, respectively.

Regarding `CC(O)COCC(C)(C)S(=O)(=O)C1(CN2CCc3c(C(=O)NCc4ccc(C#N)cc4)nn(C)c3C2=O)CC1` (single isomer, unassigned) [Example 91, (R)- or (S)-N-(4-Cyanobenzyl)-6-((1-((1-(2-hydroxypropoxy)-2-methylpropan-2-yl)sulfonyl)cyclopropyl)methyl)-1-methyl-7-oxo-4,5,6,7-tetrahydro-1H-pyrazolo[3,4-c]pyridine-3-carboxamide], the IC50 at CMV-polymerase (setting [2]) was found to be 5 nM; against HSV-polymerase, 69 nM. The like results for `CC(O)Cn1nc(C(=O)NCc2ccc(C#N)cc2)c2c1C(=O)N(CC1(S(=O)(=O)C3CC3)CC1)CC2` (single isomer, unassigned) [Example 226, (R)- or (S)-N-(4-cyanobenzyl)-6-((1-(cyclopropylsulfonyl)cyclopropyl)methyl)-1-(2-hydroxypropyl)-7-oxo-4,5,6,7-tetrahydro-1H-pyrazolo[3,4-c]pyridine-3-carboxamide] were, in that order, 2 nM and 101 nM. On to `C[C@H](NC(=O)c1nn(C)c2c1CCN(CC1(S(=O)(=O)C(C)(C)CO)CC1)C2=O)c1ccc(C#N)cc1` [Example 54, (S)-N-(1-(4-Cyanophenyl)ethyl)-6-((1-((1-hydroxy-2-methylpropan-2-yl)sulfonyl)cyclopropyl)methyl)-1-methyl-7-oxo-4,5,6,7-tetrahydro-1H-pyrazolo[3,4-c]pyridine-3-carboxamide], for which, on CMV-polymerase (setting [1]), the IC50 is 2 nM. Moreover, the EC50 with CMV came to 53 nM. Regarding `Cn1nc(C(=O)NCc2ccc(C#N)cc2)c2c1C(=O)N(CC1(S(=O)(=O)C(C)(C)C(O)C(C)(C)N)CC1)CC2` (single isomer, unassigned) [Example 212, (R)- or (S)-6-((1-((4-Amino-3-hydroxy-2,4-dimethylpentan-2-yl)sulfonyl)cyclopropyl)methyl)-N-(4-cyanobenzyl)-1-methyl-7-oxo-4,5,6,7-tetrahydro-1H-pyrazolo[3,4-c]pyridine-3-carboxamide], the half-maximal inhibitory concentration (IC50) is 3 nM on CMV-polymerase (setting [2]) and 39 nM against HSV-polymerase. For the compound `Cn1nc(C(=O)NCc2ccc(Cl)cc2)c2c1C(=O)N(CC1(S(N)(=O)=O)CC1)CC2` [Example 121, N-(4-chlorobenzyl)-1-methyl-7-oxo-6-((1-sulfamoylcyclopropyl)methyl)-4,5,6,7-tetrahydro-1H-pyrazolo[3,4-c]pyridine-3-carboxamide], it took 8 nM to reach half-maximal inhibition on CMV-polymerase (setting [2]) (IC50). In the test with CMV, the EC50 came to 156 nM. Turning to `Cc1cccc(NS(=O)(=O)C2(CN3CCc4c(C(=O)NCc5ccc(C#N)cc5)nn(C)c4C3=O)CC2)n1` [Example 157, N-(4-Cyanobenzyl)-1-methyl-6-((1-(N-(6-methylpyridin-2-yl)sulfamoyl)cyclopropyl)methyl)-7-oxo-4,5,6,7-tetrahydro-1H-pyrazolo[3,4-c]pyridine-3-carboxamide], the half-maximal inhibitory concentration (IC50) on CMV-polymerase (setting [1]) was determined as 2 nM. Further, in the test on CMV, the EC50 amounted to 58 nM. Take `Cn1nc(C(=O)NCc2ccc(C#N)cc2)c2c1C(=O)N(CC1(S(=O)(=O)C(C)(C)CN3CC4CC(C3)O4)CC1)CC2` [Example 63, 6-((1-((1-(6-Oxa-3-azabicyclo[3.1.1]heptan-3-yl)-2-methylpropan-2-yl)sulfonyl)cyclopropyl)methyl)-N-(4-cyanobenzyl)-1-methyl-7-oxo-4,5,6,7-tetrahydro-1H-pyrazolo[3,4-c]pyridine-3-carboxamide]: at CMV-polymerase (setting [1]), the IC50 came to 6 nM. For the same compound, the EC50 in the test on CMV worked out at 220 nM. Turning to `Cn1nc(C(=O)NCc2ccc(C#N)cc2)c2c1C(=O)N(CC1(S(=O)(=O)C(C)(C)COC3CNC3)CC1)CC2` [Example 102, 6-((1-((1-(Azetidin-3-yloxy)-2-methylpropan-2-yl)sulfonyl)cyclopropyl)methyl)-N-(4-cyanobenzyl)-1-methyl-7-oxo-4,5,6,7-tetrahydro-1H-pyrazolo[3,4-c]pyridine-3-carboxamide], the IC50 against CMV-polymerase (setting [2]) amounted to 5 nM. Also, in the test on CMV, the EC50 was determined as 26 nM. As to `Cn1nc(C(=O)NCc2ccc(C#N)cc2)c2c1C(=O)N(CC1(S(=O)(=O)N3CC[C@H](N)C3)CC1)CC2` [Example 142, (S)-6-((1-((3-Aminopyrrolidin-1-yl)sulfonyl)cyclopropyl)methyl)-N-(4-cyanobenzyl)-1-methyl-7-oxo-4,5,6,7-tetrahydro-1H-pyrazolo[3,4-c]pyridine-3-carboxamide], on CMV-polymerase (setting [1]), the IC50 is 18 nM. Moreover, the EC50 in the test with CMV is 66 nM. The like results for `Cn1nc(C(=O)NCc2ccc(F)cc2)c2c1C(=O)N(CC1(S(=O)(=O)C(C)(C)CO)CC1)CC2` [Example 53, N-(4-Fluorobenzyl)-6-((1-((1-hydroxy-2-methylpropan-2-yl)sulfonyl)cyclopropyl)methyl)-1-methyl-7-oxo-4,5,6,7-tetrahydro-1H-pyrazolo[3,4-c]pyridine-3-carboxamide] were, in that order, 7 nM and 141 nM.
